The results in this text go back to US6759420B1, “Arylalkanoyl derivatives, processes for their preparation, their use and pharmaceutical compositions containing them” (Aventis Pharma Deutschland GmbH, priority 1999, dated 2004).

SMILES strings stand for the structures. Structures can show the parent of a compound that is named as a salt.

Chain of factor Xa (P00742 235-488 limits assumed): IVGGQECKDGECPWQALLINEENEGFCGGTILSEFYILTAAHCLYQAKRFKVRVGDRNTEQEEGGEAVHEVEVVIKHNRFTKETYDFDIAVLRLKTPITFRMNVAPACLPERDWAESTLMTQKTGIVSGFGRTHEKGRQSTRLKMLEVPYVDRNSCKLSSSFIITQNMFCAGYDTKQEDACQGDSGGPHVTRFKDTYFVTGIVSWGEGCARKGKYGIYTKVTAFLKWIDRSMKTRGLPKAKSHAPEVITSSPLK
Chain of factor Xa (P00742 41-179 limits assumed): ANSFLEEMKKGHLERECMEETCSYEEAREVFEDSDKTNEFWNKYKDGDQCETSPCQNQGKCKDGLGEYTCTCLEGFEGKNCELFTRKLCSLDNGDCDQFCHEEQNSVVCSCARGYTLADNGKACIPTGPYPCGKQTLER

The assay concerns the target factor Xa (Homo sapiens, UniProt P00742). As to the kind of experiment: Factor Xa assay (Test 1a), chromogenic. Type of assay: biochemical. More on the design: purchased Enzyme Research Laboratories, Inc; South Bend, Ind. The following applies: in vitro factor Xa assay Test 1a; human factor Xa 0.5 nM, substrate S-2765 140 μM, 25° C.; Ki from IC50 corrected for substrate competition. The source says: The ability of a compound of formula (I) to inhibit factor Xa, thrombin, plasmin, elastase, and trypsin may be assessed by determining the concentration of compound of formula (I) that inhibits enzyme activity by 50% (IC50). Purified enzymes are used in chromogenic assays. To determine the inhibition constant, the IC50 value is corrected for competition with substrate using the formula:
Ki=IC50×(1/{1+((substrate concentration)/substrate Km)})
where Km is the Michaelis-Menten constant. Y. -C. Chen and W. H. Prusoff, Biochem. Pharmacol. 22: […] (1973), which is incorporated herein by reference.
TBS-PEG buffer (50 mM Tris-Cl, pH 7.8, 200 mM NaCl, 0.05% (w/v) PEG-8000, 0.02% (w/v) NaN3) is used for this assay. The IC50 is determined by combining in appropriate wells of a Costar half-area microtiter plate 25 μl human factor Xa (Enzyme Research Laboratories, Inc.; South Bend, Ind.) in TBS-PEG; 40 μl 10% (v/v) DMSO in TBS-PEG (uninhibited control) or various concentrations of the compound to be tested diluted in 10% (v/v) DMSO in TBS-PEG; and substrate S-2765 (N-benzyloxycarbonyl-D-Arg-Gly-L-Arg-p-nitroanilide; Kabi Pharmacia, Inc.; Franklin Ohio) in TBS-PEG.
The assays are performed by pre-incubating the compound of formula (I) plus enzyme for 10 min, then the assay is initiated by adding substrate to obtain a final volume of 100 μl. The initial velocity of chromogenic substrate hydrolysis is measured by the change in absorbance at 405 nm using a Bio-tek Instruments kinetic plate reader (Ceres UV900HDi) at 25° C. during the linear portion of the time course (usually 1.5 min after addition of substrate). The concentration of inhibitor that causes a 50% decrease in the rate of substrate hydrolysis is predicted by linear regression after plotting the relative rates of hydrolysis (compared to the uninhibited control) versus the log of the compound of formula (I) concentration. The enzyme concentration is 0.5 nM and substrate concentration is 140 μM.
Consider `Cc1ccccc1C(Cc1ccc(C(=N)N)cc1)C(=O)N[C@H](C(=O)N[C@@H](CCCNC(=N)N)C(N)=O)C1CCCCC1` (mixture of isomers) [Example 140, 2-(S)-{2-(S)-[3-(4-Carbamimidoyl-phenyl)-2-(R,S)-o-tolyl-propionylamino]-2-cyclohexyl-acetylamino}-5-guanidino-pentanoic acid amide hydrochloric acid salt], for which the Ki came to 3 nM. For `Cc1ccc(C(Cc2ccc(C(=N)N)cc2)C(=O)N[C@H](C(=O)N[C@@H](CCCNC(=N)N)C(N)=O)C2CCCCC2)cc1` (mixture of isomers) [Example 141, 2-(S)-{2-(S)-[3-(4-Carbamimidoyl-phenyl)-2-(R,S)-p-tolyl-propionylamino]-2-cyclohexyl-acetylamino}-5-guanidino-pentanoic acid amide hydrochloric acid salt] the value was 100 nM; for `N=C(N)c1ccc(CNC(=O)[C@@H](NC(=O)C(Cc2ccc(C(=N)N)cc2)c2cccc(Cl)c2)C2CCCCC2)cc1` (mixture of isomers) [Example 157, N-[(S)-(4-Carbamimidoyl-benzylcarbamoyl)-cyclohexyl-methyl]-3-(4-carbamimidoyl-phenyl)-2-(R,S)-(3-chloro-phenyl)-propionamide hydrochloric acid salt], 19 nM; for `CC(C)OC(=O)[C@H](CCCNC(=N)N)NC(=O)[C@@H](NC(=O)C(Cc1ccc(C(=N)N)cc1)C1CCCCC1)C1CCCCC1` (mixture of isomers) [Example 181, 2-(S)-{2-[3-(4-Carbamimidoyl-phenyl)-2-(R,S)-cyclohexyl-propionylamino]-2-(S)-cyclohexyl-acetylamino}-5-guanidino-pentanoic acid isopropyl ester hydrochloric acid salt], 13 nM. As to `N=C(N)NCCC[C@H](NC(=O)[C@@H](NC(=O)C(Cc1ccc(C(=N)N)cc1)C1CCCCC1)C1CCCCC1)C(=O)NCCc1ccccc1` (mixture of isomers) [Example 184, 2-(S)-{2-(R,S)-[3-(4-Carbamimidoyl-phenyl)-2-cyclohexyl-propionylamino]-2-(S)-cyclohexyl-acetylamino}-5-guanidino-pentanoic acid phenethyl-amide trifluoroacetic acid salt], affinity was put at a Ki of 19 nM. Molecule `N=C(N)c1ccc(CNC(=O)[C@@H](NC(=O)C(Cc2ccc(C(=N)N)cc2)c2ccc3ccccc3c2)C2CCCCC2)cc1` (mixture of isomers) [Example 228, N-[(S)-(4-Carbamimidoyl-benzylcarbamoyl)-cyclohexyl-methyl]-3-(4-carbamimidoyl-phenyl)-2-(R,S)-naphthalen-2-yl-propionamide hydrochloric acid salt] showed a Ki of 3 nM. Consider `N=C(N)NCCCC(NC(=O)C(NC(=O)C(Cc1ccc(C(=N)N)cc1)C1CCCCC1)C1CCCCC1)C(N)=O` (single isomer, unassigned) [Example 110], for which affinity was put at a Ki of 2 nM. For `N=C(N)NCCCC(NC(=O)C(NC(=O)C(Cc1ccc(C(=N)N)cc1)C1CCCCC1)C1CCCCC1)C(N)=O` (single isomer, unassigned; less polar) [Example 4] the value was 2 nM; for `CCOC(=O)C(CCCNC(=N)N)NC(=O)C(NC(=O)C(Cc1ccc(C(=N)N)cc1)C1CCCCC1)C1CCCCC1` (single isomer, unassigned; less polar) [Example 5], 5 nM. `N=C(N)NCCCC(NC(=O)C(NC(=O)C(Cc1ccc(C(=N)N)cc1)C1CCCCC1)C1CCCCC1)C(=O)O` (single isomer, unassigned; less polar) [Example 6] yielded a Ki of 5 nM. With `N=C(N)c1ccc(CC(C(=O)NC(C(=O)NCCN2C(=O)CNC2=O)C2CCCCC2)C2CCCCC2)cc1` (single isomer, unassigned; less polar) [Example 7], affinity was put at a Ki of 7650 nM. Molecule `C[n+]1ccc(CNC(=O)[C@@H](NC(=O)C(Cc2ccc(C(=N)N)cc2)c2ccccc2)C2CCCCC2)cc1` (single isomer, unassigned; less polar) [Example 86] yielded a Ki of 600 nM. `N=C(N)c1ccc(CNC(=O)C(NC(=O)C(Cc2ccc(C(=N)N)cc2)C2CCCCC2)C2CCCCC2)cc1` (single isomer, unassigned; less polar) [Example 111] registered a Ki of 59 nM. `N=C(N)c1ccc(CC(C(=O)NC(C(=O)NCC2CCN(C(=N)N)CC2)C2CCCCC2)C2CCCCC2)cc1` (single isomer, unassigned; less polar) [Example 113]: the Ki is 6 nM. For `N=C(N)NCCCC(NC(=O)C(NC(=O)C(Cc1ccc(C(=N)N)cc1)c1ccc(Br)cc1)C1CCCCC1)C(N)=O` (single isomer, unassigned; less polar) [Example 119] the value was 11 nM. `N=C(N)NCCCC(NC(=O)C(NC(=O)C(Cc1ccc(C(=N)N)cc1)c1cccc(Cl)c1)C1CCCCC1)C(N)=O` (single isomer, unassigned; less polar) [Example 124]: the Ki was determined as 1 nM. `N=C(N)NCCCC(NC(=O)C(NC(=O)C(Cc1ccc(C(=N)N)cc1)c1cccc(F)c1)C1CCCCC1)C(N)=O` (single isomer, unassigned; less polar) [Example 131]: the Ki turned out to be 5 nM. For `N=C(N)NCCCC(NC(=O)C(NC(=O)C(Cc1ccc(C(=N)N)cc1)c1cccc(Br)c1)C1CCCCC1)C(N)=O` (single isomer, unassigned; less polar) [Example 133], the Ki was determined as 1 nM. Molecule `CC(=N)N1CCC(CNC(=O)C(NC(=O)C(Cc2ccc(C(=N)N)cc2)C2CCCCC2)C2CCCCC2)CC1` (single isomer, unassigned; less polar) [Example 137] returned a Ki of 4 nM. The molecule `N=C(N)c1ccc(CNC(=O)C(NC(=O)C(Cc2ccc(C(=N)N)cc2)c2cccc(F)c2)C2CCCCC2)cc1` (single isomer, unassigned; less polar) [Example 149] yielded a Ki of 23 nM. With `N=C(N)c1ccc(CNC(=O)C(NC(=O)C(Cc2ccc(C(=N)N)cc2)c2cccc(Br)c2)C2CCCCC2)cc1` (single isomer, unassigned; less polar) [Example 151], the affinity, expressed as Ki, was 4 nM.

`Cc1ccc(C(Cc2ccc(C(=N)N)cc2)C(=O)NC(C(=O)NCc2ccc(C(=N)N)cc2)C2CCCCC2)cc1` (single isomer, unassigned; less polar) [Example 154] returned a Ki of 310 nM. `Cc1cccc(C(Cc2ccc(C(=N)N)cc2)C(=O)NC(C(=O)NCC2CCN(C(=N)N)CC2)C2CCCCC2)c1` (single isomer, unassigned; less polar) [Example 159] gave a Ki of 11 nM. This Ki is about 28-fold lower than that of the molecule before. In turn, `N=C(N)c1ccc(CC(C(=O)NC(C(=O)NCC2CCN(C(=N)N)CC2)C2CCCCC2)c2cccc(F)c2)cc1` (single isomer, unassigned; less polar) [Example 161] had an inhibition constant Ki of 8 nM. As for `Cc1ccccc1C(Cc1ccc(C(=N)N)cc1)C(=O)NC(C(=O)NCC1CCN(C(=N)N)CC1)C1CCCCC1` (single isomer, unassigned; less polar) [Example 163], the inhibition constant (Ki) stood at 1 nM. Compared with the last molecule, the Ki is about 8-fold lower.

`N=C(N)c1ccc(CC(C(=O)NC(C(=O)NCC2CCN(C(=N)N)CC2)C2CCCCC2)c2cccc(Br)c2)cc1` (single isomer, unassigned; less polar) [Example 165] had a Ki of 2 nM. `Cc1cccc(C(Cc2ccc(N)cc2)C(=O)NC(C(=O)NCC2CCN(C(=N)N)CC2)C2CCCCC2)c1` (single isomer, unassigned; less polar) [Example 167] registered a Ki of 74 nM. On to `N=C(N)c1ccc(CC(C(=O)NC(C(=O)NCC2CCN(C(=N)N)CC2)C2CCCCC2)c2ccc3ccccc3c2)cc1` (single isomer, unassigned; less polar) [Example 170], for which the Ki turned out to be 33 nM. As for `Cc1ccc(C(Cc2ccc(C(=N)N)cc2)C(=O)NC(C(=O)NCC2CCN(C(=N)N)CC2)C2CCCCC2)cc1` (single isomer, unassigned; less polar) [Example 172], the Ki turned out to be 72 nM. With `N=C(N)c1ccc(CC(C(=O)NC(C(=O)NCC2CCN(C(=N)N)CC2)C2CCCCC2)c2cccc(Cl)c2)cc1` (single isomer, unassigned; less polar) [Example 176], the inhibitory constant (Ki) came to 1 nM. With `N=C(N)c1ccc(CC(C(=O)NC(C(=O)NCC2CCN(C(=N)N)CC2)C2CCCCC2)c2ccc(Br)cc2)cc1` (single isomer, unassigned; less polar) [Example 177], the inhibition constant Ki was 1 nM. In the case of `CN(Cc1ccccc1)C(=O)[C@H](CCCNC(=N)N)NC(=O)C(NC(=O)C(Cc1ccc(C(=N)N)cc1)C1CCCCC1)C1CCCCC1` (single isomer, unassigned; less polar) [Example 183] it was 25 nM.
